# PubChem BioAssay AID2060882 (Molecular Pharmacology Branch, DTP, NCI, 2025)
# Tested on: 898857-211-R-J1-PDC complex spheroids, growth % test/control
# Assay: Anticancer human tumor 898857-211-R-J1-PDC patient-derived melanoma cell line growth inhibition [RAS]
# Conditions: for IC50: curve of first compound; for viability, T/C: stronger effect = lower value
# Text: RAS pathway inhibitors in Combinations in Complex Spheroids
# A high-throughput screen of multi-cell type tumor spheroids was designed to identify active combinations of RAS pathway inhibitors and targeted small molecules. Complex spheroids include a stromal component modeled by human endothelial cells (HUVEC) and fibroblasts modeled by human mesenchymal stem cells (MSCs). The concentration ranges selected for each drug and investigational agent were based upon clinically achievable concentrations if the clinical Cmax of the agent was known.
# Compounds. The drugs and investigational agents: abemaciclib (NSC768073), cobimetinib (NSC768068), divarasib (GDC6063, NSC841802), docetaxel (NSC628503), GDC-1971 (RLY-1971, NSC841576), gemcitabine (NSC613327), inavolisib (NSC800729), ipatasertib (NSC767898), KB-0742 (NSC834161), MRTX-1133 (NSC836407), osimertinib (NSC779217), RMC-4630 (NSC839698), RMC-6236 (NSC851965), RMC-6291 (NSC852671), Ro-3306 (NSC812927), sapanisertib (NSC764658), SN-38 (NSC673596), staurosporine (NSC755774), SY5609 (NSC837396), and tovorafenib (DAY101, NSC766906), were obtained from the National Cancer Institute (NCI) Developmental Therapeutics Program Chemical Repository. The FDA-approved anticancer drug set is available from the NCI Developmental Therapeutics Program. […] The stock solutions were prepared in dimethyl sulfoxide (DMSO, Sigma-Aldrich, St. Louis, MO, cat. D2650) at 800-fold the tested concentration and stored at -70 degrees C prior to their use. All drugs and investigational agents were tested over a range starting from a high concentration at or near the clinical Cmax and decreasing in half-log increments. If the clinical Cmax for an agent had not been determined, the highest concentration tested was 10 microM.
# Cell Culture. All cells were maintained in an incubator at 37 degrees C and 5% CO2 with 95% humidity. The PDC lines were cultured according to standard operating procedures established by the NCI PDMR. All PDCs were thawed and cultured in Matrigel-coated flasks prepared with a working solution of 1X Ham's F-12 nutrient mix, without supplementation (Invitrogen, Waltham, MA, cat. 11765054), 100 U/mL penicillin-streptomycin (Invitrogen, cat. 15140122), and 2.5% Matrigel (Corning Inc., Corning, NY, cat. 354248) for the first three passages. The 362531-283-R-J2-PDC and 782815-120-R-J1-PDC lines were cultured in 6C/Colon 1B media, which includes advanced DMEM/F-12 (Thermo Fisher Scientific, cat. 12634028), 10 mM HEPES (Thermo Fisher Scientific, cat. 15630080), 1X GlutaMAX supplement (Thermo Fisher Scientific, cat. 35050061), 0.1 mg/mL primocin (InvivoGen, San Diego, CA, cat. ant-pm-2), 10% defined fetal bovine serum, heat inactivated (HyClone Laboratories Inc., Logan, UT, cat. SH30070.03HI), 50% L-WRN conditioned media (ATCC, cat. CRL-3276), 1.25 mM N-Acetyl-L-cysteine (Sigma-Aldrich, cat. A9165), 10 mM nicotinamide (Sigma-Aldrich, cat. N0636), 1X B-27 supplement (Thermo Fisher Scientific, cat. 17504044), 1X N-2 supplement (Thermo Fisher Scientific, cat. 17502048), 50 ng/mL human EGF (Thermo Fisher Scientific, cat. PHG0311), and 10 microM Y-27632 dihydrochloride (Tocris Bioscience, cat. 1254). The K12877-001-R-J1-PDC line was cultured in 6I media, which includes all 6C/Colon 1B media plus 10 ng/mL human FGF-10 (PeproTech, cat. 100-26), 1 ng/mL human FGF-2 (PeproTech, cat. 100-18B), 1 µM prostaglandin E2 (Tocris Bioscience, cat. 2296), […] hydrocortisone (Sigma-Aldrich, cat. H4001), and […] bovine insulin (Sigma-Aldrich, cat. I6634). The K86415-001-R-J1-PDC line was cultured in 6D media, which includes all 6C/Colon 1B media components minus the L-WRN conditioned media. The 485176-168-R4-J1-PDC was cultured in PANC media, which includes all 6C/Colon 1B media plus 100 ng/mL human FGF-10 (PeproTech, cat. 100-26), 500 nM SB-431542 (Selleckchem, cat. S1067), and 10 nM gastrin (Tocris Bioscience, cat. 3006). […]
# [1] = second compound 0.0316 µM, first compound 0.0316 µM
# [2] = second compound 0.0316 µM, first compound 0.1 µM
# [3] = second compound 0.0316 µM, first compound 0.316 µM
# [4] = second compound 0.0316 µM, first compound 1 µM
# [5] = second compound 0.0316 µM, first compound 3.16 µM
# [6] = second compound 0.0316 µM, first compound 10 µM
# [7] = second compound 0.1 µM, first compound 0.0316 µM
# [8] = second compound 0.1 µM, first compound 0.1 µM
# [9] = second compound 0.1 µM, first compound 0.316 µM
# [10] = second compound 0.1 µM, first compound 1 µM
# [11] = second compound 0.1 µM, first compound 3.16 µM
# [12] = second compound 0.1 µM, first compound 10 µM
# [13] = second compound 0.316 µM, first compound 0.0316 µM
# [14] = second compound 0.316 µM, first compound 0.1 µM
# [15] = second compound 0.316 µM, first compound 0.316 µM
# [16] = second compound 0.316 µM, first compound 1 µM
# [17] = second compound 0.316 µM, first compound 3.16 µM
# [18] = second compound 0.316 µM, first compound 10 µM
# [19] = second compound 1 µM, first compound 0.0316 µM
# [20] = second compound 1 µM, first compound 0.1 µM
# [21] = second compound 1 µM, first compound 0.316 µM
# [22] = second compound 1 µM, first compound 1 µM
# [23] = second compound 1 µM, first compound 3.16 µM
# [24] = second compound 1 µM, first compound 10 µM
# [25] = second compound 3.16 µM, first compound 0.0316 µM
# [26] = second compound 3.16 µM, first compound 0.1 µM
# [27] = second compound 3.16 µM, first compound 0.316 µM
# [28] = second compound 3.16 µM, first compound 1 µM
# [29] = second compound 3.16 µM, first compound 3.16 µM
# [30] = second compound 3.16 µM, first compound 10 µM
# [31] = second compound 10 µM, first compound 0.0316 µM
# [32] = second compound 10 µM, first compound 0.1 µM
# [33] = second compound 10 µM, first compound 0.316 µM
# [34] = second compound 10 µM, first compound 1 µM
# [35] = second compound 10 µM, first compound 3.16 µM
# [36] = second compound 10 µM, first compound 10 µM
# 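Note: spheroids exposed to compound for seven days before readout.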
# 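Throughout, for viability, T/C: 100% = DMSO vehicle control wells.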
compound,measurement,setting,value
CC1(O)CCCC1n1c(=O)c(C(F)F)cc2cnc(NC3CCN(S(C)(=O)=O)CC3)nc21 (stereo unspecified) + C#Cc1c(F)ccc2cc(O)cc(-c3ncc4c(N5CC6CCC(C5)N6)nc(OCC56CCCN5CC(F)C6)nc4c3F)c12,IC50,second compound 0.0316 µM,584 nM
same,IC50,second compound 0.1 µM,129 nM
same,IC50,second compound 0.316 µM,334 nM
same,IC50,second compound 1 µM,529 nM
same,IC50,second compound 3.16 µM,321 nM
same,IC50,second compound 10 µM,< 31.6 nM
same,"viability, T/C",[1],66.1%
same,"viability, T/C",[2],53.6%
same,"viability, T/C",[3],44.3%
same,"viability, T/C",[4],49.5%
same,"viability, T/C",[5],43.1%
same,"viability, T/C",[6],19.9%
same,"viability, T/C",[7],95%
same,"viability, T/C",[8],52.6%
same,"viability, T/C",[9],38.7%
same,"viability, T/C",[10],43.4%
same,"viability, T/C",[11],48.3%
same,"viability, T/C",[12],23.4%
same,"viability, T/C",[13],76.8%
same,"viability, T/C",[14],50.7%
same,"viability, T/C",[15],41.8%
same,"viability, T/C",[16],49.8%
same,"viability, T/C",[17],43.5%
same,"viability, T/C",[18],19.4%
same,"viability, T/C",[19],79%
same,"viability, T/C",[20],57.6%
same,"viability, T/C",[21],46.2%
same,"viability, T/C",[22],46.8%
same,"viability, T/C",[23],48.3%
same,"viability, T/C",[24],18.1%
same,"viability, T/C",[25],88.7%
same,"viability, T/C",[26],54.5%
same,"viability, T/C",[27],49.4%
same,"viability, T/C",[28],41.5%
same,"viability, T/C",[29],46.7%
same,"viability, T/C",[30],16.5%
same,"viability, T/C",[31],37.5%
same,"viability, T/C",[32],24.6%
same,"viability, T/C",[33],26.9%
same,"viability, T/C",[34],27.1%
same,"viability, T/C",[35],35.8%
same,"viability, T/C",[36],2.8%
CCN1CCN(Cc2ccc(Nc3ncc(F)c(-c4cc(F)c5nc(C)n(C(C)C)c5c4)n3)nc2)CC1 + C#Cc1c(F)ccc2cc(O)cc(-c3ncc4c(N5CC6CCC(C5)N6)nc(OCC56CCCN5CC(F)C6)nc4c3F)c12,IC50,second compound 0.0316 µM,269 nM
same,IC50,second compound 0.1 µM,256 nM
same,IC50,second compound 0.316 µM,235 nM
same,IC50,second compound 1 µM,298 nM
same,IC50,second compound 3.16 µM,196 nM
same,IC50,second compound 10 µM,6.16 nM
same,"viability, T/C","second compound 0.0316 µM, first compound 0.00316 µM",98.6%
same,"viability, T/C","second compound 0.0316 µM, first compound 0.01 µM",87.4%
same,"viability, T/C",[1],91.9%
same,"viability, T/C",[2],74.3%
same,"viability, T/C",[3],46%
same,"viability, T/C",[4],37.5%
same,"viability, T/C","second compound 0.1 µM, first compound 0.00316 µM",101%
same,"viability, T/C","second compound 0.1 µM, first compound 0.01 µM",92.6%
same,"viability, T/C",[7],96.6%
same,"viability, T/C",[8],75.2%
same,"viability, T/C",[9],44.4%
same,"viability, T/C",[10],42.1%
same,"viability, T/C","second compound 0.316 µM, first compound 0.00316 µM",112%
same,"viability, T/C","second compound 0.316 µM, first compound 0.01 µM",99.5%
same,"viability, T/C",[13],96%
same,"viability, T/C",[14],65.4%
same,"viability, T/C",[15],44.9%
same,"viability, T/C",[16],32.2%
same,"viability, T/C","second compound 1 µM, first compound 0.00316 µM",93%
same,"viability, T/C","second compound 1 µM, first compound 0.01 µM",101%
same,"viability, T/C",[19],96.5%
same,"viability, T/C",[20],72.1%
same,"viability, T/C",[21],51.2%
same,"viability, T/C",[22],38.2%
same,"viability, T/C","second compound 3.16 µM, first compound 0.00316 µM",107%
same,"viability, T/C","second compound 3.16 µM, first compound 0.01 µM",92.3%
same,"viability, T/C",[25],91.2%
same,"viability, T/C",[26],56.5%
same,"viability, T/C",[27],45.9%
same,"viability, T/C",[28],33.6%
same,"viability, T/C","second compound 10 µM, first compound 0.00316 µM",56.4%
same,"viability, T/C","second compound 10 µM, first compound 0.01 µM",45.8%
same,"viability, T/C",[31],32.5%
same,"viability, T/C",[32],21.5%
same,"viability, T/C",[33],11.3%
same,"viability, T/C",[34],2.36%
C[C@@H](NC(=O)c1ncnc(N)c1Cl)c1ncc(C(=O)Nc2cc(C(F)(F)F)c(Cl)cn2)s1 + C#Cc1c(F)ccc2cc(O)cc(-c3ncc4c(N5CC6CCC(C5)N6)nc(OCC56CCCN5CC(F)C6)nc4c3F)c12,IC50,second compound 0.0316 µM,6700 nM
same,IC50,second compound 0.1 µM,5980 nM
same,IC50,second compound 0.316 µM,6760 nM
same,IC50,second compound 1 µM,6540 nM
same,IC50,second compound 3.16 µM,5020 nM
same,IC50,second compound 10 µM,358 nM
same,"viability, T/C",[1],140%
same,"viability, T/C",[2],112%
same,"viability, T/C",[3],104%
same,"viability, T/C",[4],88.3%
same,"viability, T/C",[5],63%
same,"viability, T/C",[6],41.3%
same,"viability, T/C",[7],124%
same,"viability, T/C",[8],126%
same,"viability, T/C",[9],99.4%
same,"viability, T/C",[10],88.3%
same,"viability, T/C",[11],65.8%
same,"viability, T/C",[12],37.7%
same,"viability, T/C",[13],121%
same,"viability, T/C",[14],125%
same,"viability, T/C",[15],113%
same,"viability, T/C",[16],89.3%
same,"viability, T/C",[17],66.3%
same,"viability, T/C",[18],42%
same,"viability, T/C",[19],126%
same,"viability, T/C",[20],122%
same,"viability, T/C",[21],115%
same,"viability, T/C",[22],97.3%
same,"viability, T/C",[23],63.4%
same,"viability, T/C",[24],42%
same,"viability, T/C",[25],127%
same,"viability, T/C",[26],126%
same,"viability, T/C",[27],108%
same,"viability, T/C",[28],86.5%
same,"viability, T/C",[29],64.1%
same,"viability, T/C",[30],31.5%
same,"viability, T/C",[31],77.3%
same,"viability, T/C",[32],70.7%
same,"viability, T/C",[33],47.3%
same,"viability, T/C",[34],38.5%
same,"viability, T/C",[35],27.4%
same,"viability, T/C",[36],19%
